One molecule from patent US9663569B2, “Use of blocking agents of bone morphogenic protein (BMP) signalling for the treatment of neuroinflammatory and neurodegenerative diseases” (THE MEDICAL RESEARCH, INFRASTRUCTURE, AND HEALTH SERVICES …, priority 2012, dated 2017) can be followed below.

This assay relates to SJL female mice with induced RR-EAE. In words: RR-EAE clinical score in SJL mice after systemic treatment. It is filed as in vivo. The method, then: The SJL/EAE mice model was chosen based on its relapsing and remitting (RR) pattern, which resembles the pattern of RR-multiple sclerosis in humans. RR-EAE was induced in SJL female mice (8 weeks old, Harlan Laboratories, Ltd. Israel) by subcutaneous immunization (designated day 0) with proteolipid protein peptide (PLP139-151, BioSight Ltd.) at a concentration of 100 μg/mouse.
In both models the peptides used for EAE induction were emulsified in an equal volume of Complete Freund's Adjuvant (CFA, DIFCO), containing 500 μg Mycobacterium tuberculosis H37RA (MT, DIFCO). In addition, the mice received two consecutive intraperitoneal injections of 300 ng Pertussis toxin (PTX, Sigma-Aldrich) in 0.2 ml PBS. The first injection was given at day 0 and a second injection was given 48 h afterwards.
Day 9 post induction of EAE was chosen for administration of anti-BMP neutralizing antibodies, in order to affect both the onset and the severity of EAE. […], emulsified in 200 μl PBS: anti-human BMP-2/4 (an antibody which recognizes both BMP-2 and BMP-4), anti-human BMP-5, and anti-human BMP-7 mAbs (all anti-BMP neutralizing monoclonal antibodies were obtained from R&D systems). Commercial anti-human BMPs were used based on the high homology (>95%) between human and mouse BMPs. […] Since the blood brain barrier (BBB) is disrupted in the EAE mice by the presence of pertussis toxin, the injected antibodies are present systemically in the blood stream but are also transmitted to the CNS through the disrupted BBB.
Mice treated with corresponding isotype controls (IgG1 and IgG2β, termed herein “IC”) (R&D systems) as well as mice treated with the vehicle PBS alone (termed herein “vehicle”) were used as negative controls (n=12 in each group).
Mice were monitored for symptoms of RR-EAE and were scored as follows: “0” for no disease; “1”, tail paralysis; “2”, hind limb weakness; “3”, hind limb paralysis; “4”, hind limb and forelimb paralysis; “5”, moribund.
[…] Animals were daily monitored for EAE symptoms and scored as described above. […]

Where [1] appears, read: 10 mg/kg i.p. every 12 hr for 5 days from day 9 post immunization.

As to `c1cc(-c2cnn3cc(-c4ccc(OCCN5CCCCC5)cc4)cnc23)ccn1` [dorsomorphin, 6-[4-(2-Piperidin-1-yl-ethoxy)phenyl]-3-pyridin-4-yl-pyrazolo[1,5-a]pyrimidine], under setting [1], the “form of the disease during treatment” value is “very mild form of the disease” and the “onset of the first relapse delayed to day” value was 16 days. Under “10 mg/kg i.p., day 9 to day 13, until day 16 post immunization”, the “mice exhibiting the severe forms of the disease (score 2-5)” value is “no mice”.
